Source: US20060057093A1, “Preparation for topical use with the function of combating hair loss” (priority 2003, published 2006)

What was measured:
[1] = system: human fibroblast cultures; test: cell-stimulating action on human fibroblast cultures; format: cell-based; details: active ingredient present in the culture medium
Excerpt: The cell-stimulating action of the complex of amino acids with silanol has been tested on human fibroblast cultures. The increase in cell growth was 46% when that active ingredient was present in the culture medium.

[2] = system: transglutaminases in keratinocytes; details: cited from earlier work

Compound: monomethylsilanol-hydroxyproline aspartate [complex of amino acids with silanol]
- increase in cell growth [1]: 46%

Compound: CCCC(=O)[O-].[Na+] [sodium butyrate]
- formation of the corneified enclosure of the corneocytes ([2]; keratinocytes in the final stage of differentiation): capable of stimulating
- synthesis of transglutaminases in keratinocytes ([2]; keratinocytes): capable of stimulating the synthesis of transglutaminases
